Measured values published in patent US20110230571A1, “DIAGNOSTIC AND THERAPEUTIC PROTOCOLS” (ALFRED HEALTH, priority 2007, published 2011).
Where two headings read alike, the source gives them in different places.

Assays:
Assay type in all cases: cell-based
[1] = system: HIV-1 from patient plasma on GHOSTX4R5 cells
Procedure: (§1) Blood is collected from HIV-1-infected individuals in sodium heparin, anti-coagulant citrate dextrose (ACD) a ethylenediamine tetraacetic acid (EDTA) and/or any other anti-coagulant blood tubes. The plasma isolated from each tube is stored at −80° C. until use.
To pellet the virus, plasma was diluted 1 in 2 (to a final volume of 800 μL) and layered over a 20% w/v sucrose cushion. The plasma was centrifuged at 17,000×g for 2 hours at 4° C. The supernatant was aspirated and the viral pellet (viral isolate) was resuspended in 50 μL of GHOST media (Dulbecco's Modified Eagle's Medium (DMEM, Invitrogen, Auckland, NZ), 10% v/v Cosmic calf serum (Quantum Scientific, Milton, Qld), 1× Penicillin/Streptomycin/Glutamine (Invitrogen), 1 μg/mL Puromycin (Sigma, St. Louis, Mo.), 100 μg/mL Hygromycin (Sigma), 500 μg/mL G418 (AG Scientific, San Diego, Calif.)) or DMEM-10 (DMEM, 10% v/v Cosmic calf serum) in the presence and absence of Heparin (20 U/mL, David Bull Laboratories, Melbourne, Australia). All samples contain polybrene at 2 μg/mL. Samples resuspended in DMEM-10 contain 40 μg/mL DEAE-Dextran.
Samples were resuspended in GHOST media and added to GHOSTX4R5 cells which have been seeded 24 hours previously in a 96-well flat-bottomed plate at 10,000 cells/well. GHOSTX4R5 cells are an adherent cell line derived from human osteosarcoma (HOS cells). They are stably transfected with the HIV-2 LTR driving hGFP construct and express green fluorescent protein (GFP) when productively infected with HIV or SIV. The cells also stably express surface CD4, CCR5 and CXCR4 (Morner et al. Journal of Virology 73:2342-2349, 1999) (NIH AIDS Research and Reference Reagent Program, Division of AIDS, NIAID, NIH).
Both cell lines are infected at the same time with HIV-1 strains 89.6 (uses both CXCR4 and CCR5), NL4-3 (uses CXCR4 only) and AD8 (uses CCR5 only) as positive controls for infection. The cells are then subjected to spinoculation—centrifugation at 1200×g for 2 hours at room temperature. The volume of media is increased to 150 μL with media and the cells are incubated for 5 days. Samples are observed for the presence of clot formation at all stages.
At day 5 post-infection, GHOST cells are washed in phosphate buffered saline (PBS), detached from the plate with Trypsin-EDTA, washed twice in FACS wash and fixed with FACS Fix. The cells are then analyzed by flow cytometry for expression of GFP as an indication of HIV-1 infection. TZMbl cells are washed in PBS and fixed for 5 mins in fixative. Cells are washed once and 50 μL of β-gal substrate is added to each well. The cells are incubated at 37° C. for 2 hours. […] Under a light microscope, the number of blue-stained (HIV-1 infected) foci are counted. Uninfected cells are analyzed as a negative/background control.

[2] = system: HIV-1 from patient plasma on TZMbl cells; assay: Infection of TZMbl indicator cells with virus pelleted from patient plasma (Example 2); conditions: samples in DMEM-10 (n=9), plasma collected in the named anti-coagulant
Procedure: as §1
To pellet the virus, plasma was diluted 1 in 2 (to a final volume of 800 μL) and layered over a 20% w/v sucrose cushion. The plasma was centrifuged at 17,000×g for 2 hours at 4° C. […]
Samples are also resuspended in DMEM-10 media and added to TZMbl cells. […] Upon integration of the host genome with the HIV-1 genome, these two genes are expressed and can be measured (NIH AIDS Research and Reference Reagent Program, Division of AIDS, NIAID, NIH (Derdeyn et al. Journal of Virology 74:8358-8367, 2000; Platt et al. Journal of Virology 72:2855-2864, 1998; Wei et al. Antimicrobial Agents and Chemotherapy 46:1896-1905, 2002). Following HIV infection of TZMbls, there is an increase in β-gal expression over the next 5 days. Infection is most simply measured by counting the number of cells that express β-gal (or are blue). The maximum number of blue cells that can be counted by this assay is 300 cells. […]
At day 5 post-infection, GHOST cells are washed in phosphate buffered saline (PBS), detached from the plate with Trypsin-EDTA, washed twice in FACS wash and fixed with FACS Fix. […] Uninfected cells are analyzed as a negative/background control.

[3] = system: HIV-1 from patient plasma on GHOSTX4R5 cells; conditions: for number of patients whose virus infected GHOSTX4R5 cells: of 5 patients
Procedure: Matched patient blood samples were collected from HIV-1 positive, viraemic individuals, in sodium heparin, ACD and EDTA blood tubes.
To prepare a viral isolate pellet, plasma was diluted 1 in 2 (to a final volume of 800 μL) and layered over a 20% v/v sucrose cushion. The plasma was centrifuged at 17,000×g for 2 hours at 4° C. The supernatant was aspirated and the viral pellet was resuspended in 50 μL media as follows: • Sodium heparin samples: • Resuspended in GHOST media. • ACD samples: • One sample resuspended in GHOST media. • One sample resuspended in GHOST media plus Heparin at 20 U/mL. • One sample resuspended in GHOST media plus EDTA* • EDTA samples: • One sample resuspended in GHOST media. • One sample resuspended in GHOST media plus Heparin at 20 U/mL. • One sample resuspended in GHOST media plus ACD*
*ACD and EDTA were obtained by filling collection tubes with 9 mL of GHOST media. This media was then used undiluted to resuspend the pellet.
All samples contained Polybrene at 2 μg/mL.
Samples were added to GHOSTX4R5 cells which had been seeded the night before in a 96-well flat-bottomed TC plate at 10,000 cells/well. The cells were subjected to Spinoculation—centrifugation at 1200×g for 2 hours at room temperature. The volume of media was increased to 150 μL with GHOSTX4R5 media and the cells were incubated for 5 days.
The cells were washed in PD, detached from the plate with Trypsin-EDTA, washed 2× in FACS wash and fixed with FACS Fix. The cells were then analyzed by flow cytometry for GFP expression as an indication of HIV-1 infection. Cells infected with HIV-1 lab strains 89.6, NL4-3 and AD8 were run concurrently as positive controls for infection. Uninfected cells were analyzed as a negative/background control.

[4] = GHOSTX4R5 cells, samples in GHOST media (n=10), plasma collected in the named anti-coagulant
[5] = Day 5 post-infection, named anti-coagulant combination

| Compound | patient samples with viral infection observed [1, 4] [%] | patient samples with viral infection observed [2] [%] | mean number of infected cells ([3]; 5 patients, ACD or EDTA added to samples) | number of patients whose virus infected GHOSTX4R5 cells [3, 5] | patient samples with viral infection observed ([1]; GHOSTX4R5 cells (n=10), plasma collected in ACD, heparin added to the resuspended plasma pellet) [%] | patient samples with viral infection observed ([1]; GHOSTX4R5 cells (n=10), samples collected in EDTA to which heparin had been added) [%] | mean number of GFP positive cells per 100,000 cells ([3]; 5 patients, blood collected in sodium heparin, compared with other anti-coagulant combinations) | mean number of infected cells ([3]; 5 patients, heparin added to samples collected in ACD or EDTA, versus ACD or EDTA alone) | number of patients whose virus infected GHOSTX4R5 cells ([3]; viral isolates derived from ACD plasma to which heparin had been added) |
| --- | --- | --- | --- | --- | --- | --- | --- | --- | --- |
| O=C(O)CN(CCN(CC(=O)O)CC(=O)O)CC(=O)O [EDTA, ethylenediamine tetraacetic acid] | 30 | 22 | very low | 4 |  |  |  |  |  |
| heparin | 40 | 33 |  | 3 | 50 | 40 | highest | slightly improved | 5 |
